In patent US10865451B2, “Non-invasive blood based monitoring of genomic alterations in cancer” (Dana-Farber Cancer Institute, Inc., priority 2013, dated 2020):

System: advanced EGFR-mutant NSCLC
Assay: Serial ddPCR plasma genotyping of patients on first-line erlotinib (NCT00997334) until RECIST progression
Type: in vivo, human
Protocol: For each eligible patient, plasma was collected during routine care either prior to first-line therapy or at a subsequent time when the cancer was progressing on therapy. Additional follow-up specimens were collected if possible during routine care. Each specimen was collected into one 10 mL EDTA-containing vacutainer and was spun into plasma within 4 hours of collection. Plasma cfDNA was extracted and frozen at −80 C until genotyping. Total DNA concentration in extracted plasma was measured via a modified quantitative PCR assay for human long interspersed element 1 (LINE-1).
Each droplet is individually assigned a positive or negative value based on the fluorescent intensity. The amount of positives and negatives are read by a flow cytometer and are used to calculate the concentration of an allele. To minimize bias and to ensure the integrity of results, the laboratory was blinded to the tumor genotype when testing plasma specimens, but results were selectively unblinded for data analysis. Each plasma sample was analyzed in triplicate with an increasing quantity of input DNA (e.g. 1 μL, 2 μL, and 4 μL). Results were normalized to a mean concentration of mutant alleles per μL DNA input, and reported as copies of mutant allele per 100 μL of DNA, the approximate DNA quantity isolated from one blood specimen.

In the case of `C#Cc1cccc(Nc2ncnc3cc(OCCOC)c(OCCOC)cc23)c1` [erlotinib], the “patients exhibiting a plasma response (drop of plasma level of EGFR sensitizing mutation)” value (9 analysed patients with EGFR exon 19 deletion and detectable pretreatment plasma genotype) is reported as 9 patients, the “patients demonstrating a complete plasma response” value (of 9 analysed patients) is reported as 8 patients and the “patients with plasma levels of mutant EGFR again detected at objective progression (plasma T790M also identified)” value (of 9 analysed patients, at RECIST progression) is reported as 6 patients.
